For data set [1], the system named is Bovine viral diarrhea virus 1. In words: Antiviral activity against Bovine viral diarrhea virus infected in human HuH7 cells by luciferase reporter gene assay. The format is functional, organism-based. Particulars: Bovine viral diarrhea virus isolates and strains, Huh-7.
The nature of data set [2]: Cytotoxicity against human HuH7 cells infected with HCV genotype 1b after 72 hrs by Alamar blue assay. The data set is classed as cell-based, Huh-7.
The subject of data set [3] is Hepatitis C virus. The data set can be described thus: Antiviral activity against Hepatitis C virus genotype 1b infected in human HuH7 cells after 72 hrs by FRET assay. Particulars: Huh-7, 72 h. The format is functional, organism-based, Hepacivirus hominis.
In data set [4] the test system is Hepatitis C virus. The data set can be described thus: Antiviral activity against Hepatitis C virus genotype 1a infected in human HuH7 cells after 72 hrs by FRET assay. The format is functional, organism-based, Hepacivirus hominis. Particulars: subtype 1a, Huh-7, 72 h.
Data set [5] relates to Hepatitis C virus. In words: Antiviral activity against Hepatitis C virus genotype 1a infected in human HuH7 cells after 5 days by ELISA. The data set is classed as functional, organism-based, Hepacivirus hominis. Particulars: subtype 1a, Huh-7, 120 h.

For the compound `CN(C)[C@@H](C(=O)N1CCC[C@H]1C(=O)Nc1ccc(-c2cnc(-c3ccc(NC(=O)[C@@H]4CCCN4C(=O)[C@@H](c4ccccc4)N(C)C)cc3)o2)cc1)c1ccccc1`, the EC50 in data set [1] worked out at 1570 nM; with Hepatitis C virus [3], 677 nM; in the data set with Hepatitis C virus [4] it was 568 nM. It took 6010 nM to reach half-maximal cytotoxicity in data set [2] (CC50 at 72 h).

As to `CN(C)[C@@H](C(=O)N1CCC[C@H]1c1nc2cc(-c3cnc(-c4ccc5[nH]c([C@@H]6CCCN6C(=O)[C@@H](c6ccccc6)N(C)C)nc5c4)o3)ccc2[nH]1)c1ccccc1`, the concentration giving a half-maximal response (EC50) was 4960 nM in data set [1], under 4.6 nM in the data set on Hepatitis C virus [3] and 973 nM in the data set on Hepatitis C virus [5]. The same compound displayed a CC50 at 72 h in data set [2] of over 10000 nM.

Take `CN(C)[C@@H](C(=O)N1CCC[C@H]1c1nc2cc(C#Cc3ccc4[nH]c([C@@H]5CCCN5C(=O)[C@@H](c5ccccc5)N(C)C)nc4c3)ccc2[nH]1)c1ccccc1`: the EC50 is 3420 nM in data set [1], 0.075 nM with Hepatitis C virus [3] and 232 nM in the data set with Hepatitis C virus [5]. The compound also returned a CC50 at 72 h in data set [2] of 6390 nM.

`CN(C)[C@@H](C(=O)N1CCC[C@H]1C(=O)Nc1ccc(-c2cnc(-c3cccc(NC(=O)[C@@H]4CCCN4C(=O)[C@@H](c4ccccc4)N(C)C)c3)o2)cc1)c1ccccc1`: the EC50 in data set [1] was determined as 1220 nM; with Hepatitis C virus [3], 0.39 nM; in the data set with Hepatitis C virus [4], 1.6 nM. Moreover, the CC50 at 72 h in data set [2] worked out at 5760 nM.

On to `COC(=O)N[C@@H](C(=O)N1CCC[C@H]1c1ncc(-c2ccc(-c3ccc(-c4cnc([C@@H]5CCCN5C(=O)[C@@H](c5ccccc5)N(C)C)[nH]4)cc3)cc2)[nH]1)c1ccccc1`, for which the EC50 in data set [1] came to 3440 nM; with Hepatitis C virus [3] it was 0.012 nM; in the data set with Hepatitis C virus [5] it was 0.049 nM. This compound displayed a CC50 at 72 h in data set [2] of over 9700 nM.

`O=C(Cc1ccccc1)N1CCC[C@H]1c1nc2cc(C#Cc3ccc4nc([C@@H]5CCCN5C(=O)Cc5ccccc5)[nH]c4c3)ccc2[nH]1`: the results for the EC50 (in data set [1]; with Hepatitis C virus [3]; in the data set on Hepatitis C virus [4]) were over 10000 nM, under 4.6 nM and over 100 nM, respectively. Also, the CC50 at 72 h in data set [2] is over 10000 nM.

Take `CN(C)[C@H](C(=O)N1CCC[C@H]1c1ncc(-c2ccc(-c3ccc(-c4cnc([C@@H]5CCCN5C(=O)[C@H](c5ccccc5)N(C)C)[nH]4)cc3)cc2)[nH]1)c1ccccc1`: the EC50 turned out to be 1270 nM in data set [1], 5.4 nM in the data set on Hepatitis C virus [3] and 704 nM in the data set with Hepatitis C virus [5]. Further, it took 3610 nM to reach half-maximal cytotoxicity in data set [2] (CC50 at 72 h).

With `CN(C)C(C(=O)N1CCC[C@H]1C(=O)Nc1ccc(-c2ncc(-c3ccc4[nH]c([C@@H]5CCCN5C(=O)[C@@H](c5ccccc5)N(C)C)nc4c3)o2)cc1)c1ccccc1` (single isomer, unassigned), the values for the EC50 (in data set [1]; in the data set on Hepatitis C virus [3]; in the data set on Hepatitis C virus [5]) were over 370 nM, 0.077 nM and 251 nM, respectively. This compound also came in with a CC50 at 72 h in data set [2] of over 10000 nM.

Consider `O=C(Nc1ccc(C#Cc2ccc(NC(=O)[C@@H]3CCCN3C(=O)Cc3ccccc3)cc2)cc1)[C@@H]1CCCN1C(=O)Cc1ccccc1`, for which the EC50 is over 10000 nM in data set [1], 5.6 nM with Hepatitis C virus [3] and over 400 nM in the data set with Hepatitis C virus [4]. Further, the 50% cytotoxic concentration (CC50) at 72 h in data set [2] was over 10000 nM.

`CN(C)[C@@H](C(=O)N1CCC[C@H]1C(=O)Nc1cccc(-c2cnc(-c3cccc(NC(=O)[C@@H]4CCCN4C(=O)[C@@H](c4ccccc4)N(C)C)c3)o2)c1)c1ccccc1`: the EC50 in data set [1] was 1160 nM; in the data set with Hepatitis C virus [3], 0.16 nM; with Hepatitis C virus [4] it was 738 nM. Further, the CC50 at 72 h in data set [2] stood at 4730 nM.

In the case of `O=C(Nc1ccc(-c2cnc(-c3ccc(NC(=O)[C@@H]4CCCN4C(=O)Cc4ccccc4)cc3)o2)cc1)[C@@H]1CCCN1C(=O)Cc1ccccc1`, the EC50 with Hepatitis C virus [3] came to 429 nM. This lies in the sub-micromolar range.

Take `CN(C)[C@@H](C(=O)N1CCC[C@H]1c1nc2cc(C#Cc3ccc4oc([C@@H]5CCCN5C(=O)[C@@H](c5ccccc5)N(C)C)nc4c3)ccc2o1)c1ccccc1`: the values for the EC50 (in data set [1]; in the data set with Hepatitis C virus [3]; with Hepatitis C virus [5]) were 1390 nM, over 1000 nM and over 1000 nM, respectively. The CC50 at 72 h in data set [2] was 4450 nM.

As to `COC(=O)N[C@@H](C(=O)N1CCC[C@H]1c1ncc(-c2ccc(-c3ccc(-c4cnc([C@@H]5CCCN5C(=O)Cc5ccccc5)[nH]4)cc3)cc2)[nH]1)c1ccccc1`, the EC50 in data set [1] was determined as 523 nM; in the data set on Hepatitis C virus [3] it was 0.004 nM; in the data set on Hepatitis C virus [5] it was 14.9 nM. In data set [2], the CC50 at 72 h is over 10000 nM.

These data come from ChEMBL document CHEMBL3124756, “Hepatitis C virus NS5A replication complex inhibitors. Part 6: Discovery of a novel and highly potent biarylimidazole chemotype with inhibitory activity toward genotypes 1a and 1b replicons” (J Med Chem, 2014).
